The subject of test [1] is MT4. Kind of test: Cytotoxic dose required to reduce the viability of normal uninfected MT-4 cells. Type of test: functional. The settings on record: Homo sapiens, read-out: CD50 (the source's name).
For test [2], the system named is Human immunodeficiency virus 1. Kind of test: Dose required to inhibit cytopathic effect of human immunodeficiency virus replication in MT-4 cells. The conditions noted are these: Human immunodeficiency virus 1, MT4; read-out: ED50 (the source's name). Type of test: functional.
Test [3] deals with MT4. The test can be described thus: Ratio of CD50 to ED50 rvaluated for inhibition of HIV replication in MT-4 cells. Type of test: functional.
Test [4] can be described thus: Ratio of CD50 to ED50 evaluated for inhibition of HIV replication in MT-4 cells. Type of test: functional, MT4.

The values that follow come from ChEMBL document CHEMBL1124230, “Synthesis and anti-HIV activity of different sugar-modified pyrimidine and purine nucleosides” (1988).

Turning to `Nc1ncnc2c1ncn2[C@@H]1O[C@H](CO)C[C@@H]1O`, the CC50 in test [1] was more than 500 µM. In test [2], the EC50 is more than 500 µM.

`Cc1cn([C@H]2C[C@H](N=[N+]=[N-])[C@@H](CO)O2)c(=O)nc1N`: the Selectivity index in test [3] is given as 555. For the same compound, the CC50 in test [1] was more than 1000 µM. For the same compound, in test [2], the EC50 was 1.8 µM.

As to `[N-]=[N+]=N[C@H]1C[C@H](n2ccc(N)nc2=O)O[C@@H]1CO`, the Selectivity index in test [3] is given as 11. For the same compound, the CC50 in test [1] turned out to be 34.1 µM. The EC50 in test [2] was found to be 3.1 µM.

As to `Nc1ncnc2c1ncn2[C@@H]1O[C@H](CO)[C@H]2O[C@H]21`, in test [1], the CC50 was more than 500 µM. In addition, the EC50 in test [2] is more than 500 µM.

Regarding `Nc1ncnc2c1ncn2[C@@H]1O[C@H](CO)[C@@H]2O[C@@H]21`, the CC50 in test [1] was more than 100 µM. The EC50 in test [2] was more than 100 µM.

Regarding `CNc1nc(=O)n(C2CC(N=[N+]=[N-])C(CO)O2)cc1C` (stereo not given), the Selectivity index in test [3] is more than 58. Further, in test [1], the CC50 is more than 1000 µM. Further, the EC50 in test [2] was 17.3 µM.

In the case of `O=c1ccn([C@H]2C[C@H](F)[C@@H](CO)O2)c(=O)[nH]1`, the Selectivity index in test [3] was 400. Also, the CC50 in test [1] worked out at 16 µM. In addition, the EC50 in test [2] came to 0.04 µM.

As for `Nc1ncnc2c1ncn2C1OC(CO)CC1Br` (stereo not given), in test [1], the CC50 was more than 500 µM. For the same compound, the EC50 in test [2] is more than 500 µM.

`C#CC1C(CO)OC(n2cc(C)c(=O)[nH]c2=O)C1O` (stereo not given): the CC50 in test [1] was more than 500 µM. Further, the EC50 in test [2] is more than 500 µM.

With `Nc1ncnc2c1ncn2C1OC(CO)CC1Cl` (stereo not given), the CC50 in test [1] was more than 500 µM. In test [2], the EC50 was more than 500 µM.

Take `CC(=O)SC1CC(n2cc(C)c(=O)[nH]c2=O)OC1CO` (stereo not given): the Selectivity index in test [3] was 1.1. Moreover, the CC50 in test [1] worked out at 29 µM. The EC50 in test [2] worked out at 27 µM.

Consider `CNc1ccn(C2CC(N=[N+]=[N-])C(CO)O2)c(=O)n1` (stereo not given), for which the Selectivity index in test [3] was more than 1.6. For the same compound, in test [1], the CC50 was more than 1000 µM. Further, in test [2], the EC50 is 605 µM.

Take `Nc1nc(N)c2ncn([C@H]3C[C@H](O)[C@@H](CO)O3)c2n1`: the CC50 in test [1] is more than 625 µM. In addition, in test [2], the EC50 is more than 125 µM.

Turning to `Cc1cn([C@H]2C[C@H](OC(=S)Oc3ccccc3)[C@@H](CO)O2)c(=O)[nH]c1=O`, the CC50 in test [1] was more than 250 µM. In addition, the EC50 in test [2] is more than 250 µM.

With `Nc1nc(O)c2ncn(C3C=CC(CO)O3)c2n1` (stereo not given), in test [4], the Selectivity index is listed as more than 2.2. In addition, in test [1], the CC50 turned out to be 11 µM. Besides, in test [2], the EC50 is more than 5 µM.

`Cc1cn(C2OC(CO)C(C#N)C2O)c(=O)[nH]c1=O` (stereo not given): in test [2], the EC50 is more than 500 µM.

Consider `Cc1cn([C@H]2C[C@H](SS[C@H]3C[C@H](n4cc(C)c(O)nc4=O)O[C@@H]3CO)[C@@H](CO)O2)c(=O)nc1O`, for which the Selectivity index in test [3] is given as 2.1. In addition, in test [1], the CC50 amounted to 34 µM. The EC50 in test [2] was 16 µM.

In the case of `Cc1ccc(SC2CC(n3cc(C)c(=O)[nH]c3=O)OC2CO)cc1` (stereo not given), the Selectivity index in test [3] was less than 1.2. The CC50 in test [1] was found to be 116 µM. Besides, in test [2], the EC50 was more than 100 µM.

Turning to `Nc1nc(N)c2ncn(C3CC(F)C(CO)O3)c2n1` (stereo not given), the Selectivity index in test [3] came to 80. The CC50 in test [1] came to 360 µM. In test [2], the EC50 is 4.5 µM.

In the case of `Nc1nc(O)c2ncn(C3CC(F)C(CO)O3)c2n1` (stereo not given), the Selectivity index in test [4] amounted to 96. Besides, the CC50 in test [1] turned out to be 237 µM. The EC50 in test [2] is 2.4 µM.

As for `CC1=CN(C2CC(N=[N+]=[N-])C(CO)O2)CN=C1NO` (stereo not given), the Selectivity index in test [3] was determined as 61. In test [1], the CC50 worked out at 92 µM. Further, the EC50 in test [2] was 1.5 µM.

In the case of `Cc1cn([C@H]2C[C@H](F)[C@@H](CO)O2)c(=O)[nH]c1=O` [ALOVUDINE], the Selectivity index in test [3] came to 197. In test [1], the CC50 worked out at 0.197 µM. In test [2], the EC50 was 0.001 µM.

Regarding `Nc1ncnc2c1ncn2[C@@H]1O[C@H](CO)C[C@H]1O` [CORDYCEPIN], the Selectivity index in test [3] was less than 0.5. Moreover, the CC50 in test [1] was 45 µM. For the same compound, the EC50 in test [2] is more than 50 µM.

In the case of `Nc1ncnc2c1ncn2[C@H]1C[C@H](O)[C@@H](CO)O1` [DEOXYADENOSINE], the CC50 in test [1] is more than 100 µM. Further, in test [2], the EC50 was more than 100 µM.

For `Nc1nc(O)c2ncn([C@H]3C[C@H](O)[C@@H](CO)O3)c2n1` [DEOXYGUANOSINE], the Selectivity index in test [4] is listed as 3.1. Besides, the CC50 in test [1] is more than 500 µM. For the same compound, the EC50 in test [2] came to 158 µM.

Consider `[N-]=[N+]=N[C@H]1C[C@H](n2ccc(=O)[nH]c2=O)O[C@@H]1CO` [NAVURIDINE], for which the Selectivity index in test [3] worked out at 677. Besides, in test [1], the CC50 turned out to be 244 µM. In addition, the EC50 in test [2] was 0.36 µM.

With `Cc1cn([C@H]2C[C@H](N=[N+]=[N-])[C@@H](CO)O2)c(=O)[nH]c1=O` [ZIDOVUDINE], in test [3], the Selectivity index is reported as 5000. In addition, the CC50 in test [1] amounted to 20 µM. Further, the EC50 in test [2] came out at 0.004 µM.
